The Ki is the equilibrium dissociation constant of an inhibitor or competing ligand from its target.

This test addresses T1, human 5HT1A-serotonergic receptor (Homo sapiens, UniProt P08908).
T1 construct: expressed in transfected cells; host or cells: HeLa (human cell line), stably transfected; cell membranes used
T1 sequence (P08908 1-422): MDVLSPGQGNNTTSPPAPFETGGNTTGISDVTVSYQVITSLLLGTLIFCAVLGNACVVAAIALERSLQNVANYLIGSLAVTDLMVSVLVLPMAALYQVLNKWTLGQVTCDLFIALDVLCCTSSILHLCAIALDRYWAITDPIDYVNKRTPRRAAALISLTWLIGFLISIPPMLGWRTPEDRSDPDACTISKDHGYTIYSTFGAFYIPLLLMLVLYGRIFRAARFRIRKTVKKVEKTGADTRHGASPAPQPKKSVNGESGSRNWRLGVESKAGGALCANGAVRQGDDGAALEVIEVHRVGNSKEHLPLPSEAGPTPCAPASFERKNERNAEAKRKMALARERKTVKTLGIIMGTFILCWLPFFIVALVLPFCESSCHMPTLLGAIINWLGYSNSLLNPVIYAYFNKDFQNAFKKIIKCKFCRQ
Briefly: Radioligand binding to recombinant 5-HT1A receptors. To be noted: [3H]8-OH-DPAT 1 nM, membranes of HeLa cells with human 5-HT1A receptor; Ki from IC50 by Cheng & Prusoff; read-out: Binding affinity for 5HT1A receptors, Ki. Summed up:
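Membranes from HeLa cells stably expressing human 5-HT1A incubated 30 min at 30 °C with 1 nM [3H]8-OH-DPAT and compound in 50 mM Tris-HCl pH 7.4, 2.5 mM MgCl2, […] pargyline. Nonspecific binding defined with 10 μM 5-HT; filtration readout, IC50 converted to Ki via Cheng–Prusoff.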
For the molecule `COc1ccc(CC(=O)N2c3ccccc3CCC2CN2CCN(c3cccc4[nH]ccc34)CC2)cc1` (stereo not shown) [Example 68A43, 1-(4-Indolyl)-4-[1-[2-(4-methoxyphenylacetyl)]-1,2,3,4-tetrahydroquinoline-2-ylmethyl]piperazine], the Ki worked out at 42.7 nM.

Turning to `O=C(COCc1ccccc1)N1c2ccccc2CCC1CN1CCN(c2cccc3[nH]ccc23)CC1` (stereo not shown) [Example 68A44, 1-(4-Indolyl)-4-[1-(2-phenylmethoxyacetyl)-1,2,3,4-tetrahydroquinoline-2-ylmethyl]piperazine], the Ki was found to be 20.7 nM.

As for `O=C(Cc1ccccc1Cl)N1c2ccccc2CCC1CN1CCN(c2cccc3[nH]ccc23)CC1` (stereo not shown) [Example 68A45, 1-[1-[2-(2-Chlorophenylacetyl)]-1,2,3,4-tetrahydroquinoline-2-ylmethyl]-4-(4-indolyl)piperazine], the Ki was found to be 8.6 nM.

With `CN(CC(=O)N1c2ccccc2CCC1CN1CCN(c2cccc3[nH]ccc23)CC1)C(=O)c1ccccc1` (stereo not shown) [Example 68A46, 1-[1-[2-(N-Benzoyl-N-methylamino)acetyl]-1,2,3,4-tetrahydroquinoline-2-ylmethyl]-4-(4-indolyl)piperazine], the Ki amounted to 34.9 nM.

Consider `Cn1cc(C(=O)N2c3ccccc3CCC2CN2CCN(c3cccc4[nH]ccc34)CC2)c2ccccc21` (stereo not shown) [Example 68A47, 1-(4-Indolyl)-4-[1-(1-methyl-3-indolylcarbonyl)-1,2,3,4-tetrahydroquinoline-2-ylmethyl]piperazine], for which the Ki worked out at 17.1 nM.

`O=C(Cc1ccc2c(c1)OCO2)N1c2ccccc2CCC1CN1CCN(c2cccc3[nH]ccc23)CC1` (stereo not shown) [Example 68A49, 1-[1-[2-(5-Benzo[1,3]dioxolyl)acetyl]-1,2,3,4-tetrahydroquinoline-2-ylmethyl]-4-(4-indolyl)piperazine]: the Ki came to 18.7 nM.

As for `O=C(COc1ccccc1Cl)N1c2ccccc2CCC1CN1CCN(c2cccc3[nH]ccc23)CC1` (stereo not shown) [Example 68A50, 1-[1-[2-(2-Chlorophenoxy)acetyl]-1,2,3,4-tetrahydroquinoline-2-ylmethyl]-4-(4-indolyl)piperazine], the Ki worked out at 27.3 nM.

For the molecule `O=C(COc1ccc(Cl)cc1)N1c2ccccc2CCC1CN1CCN(c2cccc3[nH]ccc23)CC1` (stereo not shown) [Example 68A51, 1-[1-[2-(4-Chlorophenoxy)acetyl]-1,2,3,4-tetrahydroquinoline-2-ylmethyl]-4-(4-indolyl)piperazine], the inhibition constant Ki is 15.6 nM.

Consider `O=C(c1ccc(N2CCOCC2)nc1)N1c2ccccc2CCC1CN1CCN(c2cccc3[nH]ccc23)CC1` (stereo not shown) [Example 68A52, 1-(4-Indolyl)-4-[1-[2-(4-morpholinyl)pyridine-5-carbonyl]-1,2,3,4-tetrahydroquinoline-2-ylmethyl]piperazine], for which the Ki worked out at 18.3 nM.

For `O=C1CCC(CC(=O)N2c3ccccc3CCC2CN2CCN(c3cccc4[nH]ccc34)CC2)N1` (stereo not shown) [Example 68A54, 1-(4-Indolyl)-4-[1-[2-(5-oxopyrrolidin-2yl)acetyl]-1,2,3,4-tetrahydroquinoline-2-ylmethyl]piperazine], the Ki amounted to 41.4 nM.

Regarding `Cc1oc(S(=O)(=O)N2CCCCC2)cc1C(=O)N1c2ccccc2CCC1CN1CCN(c2cccc3[nH]ccc23)CC1` (stereo not shown) [Example 68A55, 1-(4-Indolyl)-4-[1-(2-methyl-5-piperidin-1-ylsulfonylfuran-3-carbonyl)-1,2,3,4-tetrahydroquinoline-2-ylmethyl]piperazine], the Ki was 14.3 nM.

As for `Cc1oc(S(=O)(=O)N2CCOCC2)cc1C(=O)N1c2ccccc2CCC1CN1CCN(c2cccc3[nH]ccc23)CC1` (stereo not shown) [Example 68A56, 1-(4-Indolyl)-4-[1-(2-methyl-5-morpholin-4-ylsulfonylfuran-3-carbonyl)-1,2,3,4-tetrahydroquinoline-2-ylmethyl]piperazine], the Ki is 26.8 nM.

With `Cc1ccc(S(=O)(=O)n2ccc(C(=O)N3c4ccccc4CCC3CN3CCN(c4cccc5[nH]ccc45)CC3)c2)cc1` (stereo not shown) [Example 68A57, 1-(4-Indolyl)-4-[1-[1-(4-methylphenylsulphonyl)pyrrole-3-carbonyl]-1,2,3,4-tetrahydroquinoline-2-ylmethyl]piperazine], the Ki came out at 33 nM.

Values taken from US20030162777A1, “Novel N-acylated heterocycles” (Recordati S.A., priority 2001, published 2003).
